Reference: US8444858B2, “Control of development of biofilms in industrial process water” (A.Y. Laboratories Ltd., priority 2001, dated 2013)

Key:
catalase (Merck) = assay: Inactivation of catalase, residual H2O2 laboratory test; type: biochemical; details: for Residual H2O2 concentration, % of 3.5% g/l: catalase 26 units/ml
Description: Freshly prepared biofilm inhibiting substance was added to the appropriate flasks containing diluted catalase at a pre-defined feed rate. The contents of the containers were mixed for 60 minutes at room temperature prior to addition of H2O2 (to a final H2O2 concentration of 3.5 g/l). After addition of the H2O2, the mixture was allowed to mix for 30 minutes at room temperature, at which point H2O2 residues were measured in each flask in accordance with the Dr. Lange Cuvette Test LCW 058, measured with LASA 20 (based on Jander/Blasius: Lehrbach der Analytischen and Praparative Anorganischen Chemie, as described in the Handbook of Photometrical Operation Analysis (October 1997)).
Sodium hypochlorite was diluted in DI water to a final concentration of 6000 ppm expressed as total chlorine. Ammonium bromide solution (equimolar to 1.1 mole of the diluted sodium hypochlorite solution, 10% excess on a molar basis) and ammonium chloride solution (equimolar to 1.1 mole of the diluted hypochlorite solution, 10% excess on a molar basis) were prepared. The diluted hypochlorite (50 ml) was added dropwise to 50 ml of the appropriate ammonium salt while the pH was constantly measured. The biofilm inhibiting substance concentration in the produced stock solution was immediately measured and the biofilm inhibiting substance at the appropriate feed level was immediately added to the test flasks.

biofilm [1] = assay: Pilot plant wastewater pipes, difference in Hazen-Williams coefficient treated vs control pipe; details: single 3 h treatment on day 1 at 10 ppm as total chlorine
Description: Treated wastewater was pumped through several pipes of 10 m length and 4 inches inner diameter in a pilot plant. […] Pressure drop through each pipe was monitored on-line, and average HW coefficients were calculated.
The biofilm inhibiting substance in this example was produced as follows, using a small feeding system was built specifically for this trial. […] The concentration of the biofilm inhibiting substance pre-injection solution was ˜3600 ppm and the pH was 9.2-9.6. […]

[2] = system: mixed culture of slime-forming-bacteria which had been isolated from a paper machine; assay: Formation of biofilm on stainless steel coupons in a model system (viable counts in medium and on coupons); type: cell-based
Description: Formation of biofilm on stainless steel coupons in the presence or absence of an oxidizing biocide or a biofilm inhibiting substance was evaluated in the laboratory. The test system consisted of (a) three closed flasks each containing 20 L nutrient-rich medium (diluted three-fold from its recommended use concentration), (b) three closed cells containing stainless steel coupons hanging freely, and (c) three identical circulation pumps, each pump connected via plastic pipes to one of the flasks and to one of the cells. The system was placed in a thermostatic room at 35° C.
An innoculum containing a mixed culture of slime-forming-bacteria which had been isolated from a paper machine was added to each of the flasks. An oxidizer containing a 5 ppm mixture (expressed as total Cl2) of bromochlorodimethylhydantoin (an oxidizing biocide which is a source of HOBr and HOCl) (hereinafter “mixed halogens”) was added to the first flask once a day for the duration of the trial (4 days). […] The third flask served as a control for the two flasks treated with the oxidizing biocide or biofilm inhibiting substances. […] A diluted solution of sodium hypochlorite in deionized (DI) water (˜8000 ppm as total chlorine) was fed with one pump; a diluted solution of ammonium bromide (12500 ppm) was fed with the second pump. The two diluted solutions were synchronously mixed in a short glass pipe to form a pre-injection solution of biofilm inhibiting substance, using a pH meter to control and check the stability of the biofilm inhibiting substance formed. The biofilm inhibiting substance was fed to the test system immediately as it was produced.
On days 2 and 4, each closed cell was opened and 2 coupons were aseptically removed from each cell. At the same time samples of the circulating medium were taken as well. Sampling was conducted after feeding the daily slug dose of biocide.
Each sample of medium was serially 10-fold diluted in sterile saline solution and plated in molten agar. Each coupon was thoroughly rinsed to remove any adhered particles, aseptically scraped, and the material removed by scraping was quantitatively dispersed in saline solution, vortexed, serially 10-fold diluted and plated in molten agar. Viable counts of microorganisms were taken after 48 h of incubation at 35° C. Viable counts of cells in the medium are presented as colony forming units (cfu) per ml; viable counts on the coupon surfaces are presented as cfu/cm^2.

biofilm [3] = assay: Waste water fouling control in a 7 km pipe, Hazen-Williams coefficient; details: NaOCl at a level of up to 50 mg/l (calculated as Cl2)
Description: Treated wastewater was piped from a wastewater treatment plant to a location 7 kilometers away.
(The Hazen-Williams coefficient is used to express water flow through industrial pipes. It is calculated using the formula
[formula] wherein P is the friction pressure drop expressed in pounds per square inch per 1000 feet of pipe length, B is the flow rate in barrels per hour, s is the specific gravity of the liquid, C=a friction factor (the Hazen-Williams coefficient), and d is the internal diameter of the pipe in inches. P and B are measured for a given pipe, s and d are treated as constants, and C is calculated. The results are presented as the Hazen-Williams coefficient.
Waste water (up to 10 m^3/h) was used to appropriately dilute both chemicals. An on-line pH meter controlled the production process and the hypochlorite feeding rate to ensure the production of a stable biofilm inhibiting substance. The biofilm inhibiting substance was injected into the treated waste pipe as it was produced. Concentration of the biofilm inhibiting substance stock solution was 3000-4000 ppm; the pH was maintained at 9.5-10.

[4] = De-inking plant field trial, residual H2O2, residual biofilm inhibiting substance and H2O2 consumption
Description: A de-inking system had been using 7-10 kg H2O2 per ton of waste paper.
The reaction pH was Maintained at 9.8-10.0. The Production process was controlled to ensure synchronous metering of the two chemicals, continuous mixing at the predetermined molar ratio and reproducible production of a stable biofilm inhibiting substance stock solution for the duration of the trial and longer. […] After 850 minutes the dosing rate was reduced to 85 g/ton expressed as total Cl2 by feeding the biofilm inhibiting substance semi-continuously. Various parameters were monitored during start-up of the trial: Residual biofilm inhibiting substance was measured (using a Hach pocket colorimeter, total Cl2, based on the DPD method adapted from Standard Methods for Examination of Waste and Waste Water). […] When necessary, samples were diluted with DI water.

Compound: NCl [Chloramine, monochloroamine, reference compound]
- oxidation of H2O2 by the substance (catalase (Merck)): do not oxidize H2O2
- Residual H2O2 concentration, % of 3.5% g/l (catalase (Merck); BIS 6.7 ppm as total chlorine): 6.8 % of 3.5% g/l
- Residual H2O2 concentration, % of 3.5% g/l (catalase (Merck); BIS 58 ppm as total chlorine): 97.1 % of 3.5% g/l
- Residual H2O2 concentration, % of 3.5% g/l (catalase (Merck); BIS 128 ppm as total chlorine): 99.4 % of 3.5% g/l
- HW Diff. treated pipe - Control (biofilm [1]; day 1): 13.0
- HW Diff. treated pipe - Control (biofilm [1]; day 2): 10.8
- HW Diff. treated pipe - Control (biofilm [1]; day 3): 10.7
- HW Diff. treated pipe - Control (biofilm [1]; day 4): 15.0
- HW Diff. treated pipe - Control (biofilm [1]; day 5): 15.2
- HW Diff. treated pipe - Control (biofilm [1]; day 6): 15.15
- HW Diff. treated pipe - Control (biofilm [1]; day 7): 14.6
- HW Diff. treated pipe - Control (biofilm [1]; day 8): 12.9
- HW Diff. treated pipe - Control (biofilm [1]; day 9): 13.0
- HW Diff. treated pipe - Control (biofilm [1]; day 10): 11.5
- HW Diff. treated pipe - Control (biofilm [1]; day 11): 9.5
- HW Diff. treated pipe - Control (biofilm [1]; day 12): 8.6
- HW Diff. treated pipe - Control (biofilm [1]; day 13): 7.0
- HW Diff. treated pipe - Control (biofilm [1]; day 14): 6.2
- HW Diff. treated pipe - Control (biofilm [1]; day 15): 4.4
- HW Diff. treated pipe - Control (biofilm [1]; day 16): 2.4
- HW Diff. treated pipe - Control (biofilm [1]; day 17): 0.8
- HW Diff. treated pipe - Control (biofilm [1]; day 18): 0.7

Compound: CC1(C)C(=O)N(Cl)C(=O)N1Br [Mixed Halogens, bromochlorodimethylhydantoin, reference compound]
- increase in the viable count of biofilm bacteria compared to day 2 ([2]; coupons after 4 days): 3 fold
- reduction in viable count of planktonic microorganisms ([2]; medium sample after four days): ~10 fold
- Viable Counts After 2 Days, medium ([2]; planktonic cells in circulating medium, day 2, daily slug dose (Mixed Halogens 5 ppm, Fuzzicide BAC […] expressed as Cl2), 35° C.): 9 × 10^6 cfu/ml
- Viable Counts After 4 Days, medium ([2]; planktonic cells in circulating medium, day 4, daily slug dose (Mixed Halogens 5 ppm, Fuzzicide BAC […] expressed as Cl2)): 1 × 10^6 cfu/ml
- Viable Counts After 2 Days, coupon surfaces ([2]; stainless steel coupons, day 2, daily slug dose (Mixed Halogens 5 ppm, Fuzzicide BAC […] expressed as Cl2)): 27 cfu/cm^2
- Viable Counts After 4 Days, coupon surfaces ([2]; stainless steel coupons, day 4, daily slug dose (Mixed Halogens 5 ppm, Fuzzicide BAC […] expressed as Cl2)): 95 Cfu/cm^2

Compound: [Na+].[O-]Cl [NaOCl, reference compound]
- improving water conductivity in the pipes (biofilm [3]): ineffective

Compound: O=CCCCC=O [glutaraldehyde, reference compound]
- average H2O2 consumption rate ([4]; parallel de-inking system at the same plant, commercial chemical formulation containing glutaraldehyde): ~4 kg H2O2/ton of waste paper
- control of the enzymatic degradation of H2O2 ([4]; previous attempts on the trial de-inking system): did not yield cost-effective results
